Test results taken from PMC11056980 (Journal of medicinal chemistry, 2024).
Entries after “also recorded” stand apart in the source; their conditions may differ. Residues, ends and D or L forms follow the SMILES beside them. *: point of attachment. Cbz = O=C(OCc1ccccc1)*

Columns and labels:
[1] = system: recombinant SARS-CoV-2 Δ3678 mGFP containing an NSP5 E166A mutation; format: cell-based
M^Pro = M^Pro (Severe acute respiratory syndrome coronavirus 2, UniProt P0DTD1); format: cell-based, SARS-CoV-2
[2] = system: SARS-CoV-2 delta variant hCoV-19/USA/MD-HP05647/2021; format: cell-based
[3] = molecular target: M^Pro-eGFP fusion protein (Severe acute respiratory syndrome coronavirus 2, UniProt P0DTD1, Q3569G); format: cell-based, SARS-CoV-2
[4] = system: recombinant SARS-CoV-2 Δ3678 mGFP containing an NSP5 E166A mutation; details: cited from earlier work

With C[C@@H](OC(C)(C)C)[C@H](NC(=O)OCc1cccc(OCCCCCCOc2cccc3c2C(=O)N(C2CCC(=O)NC2=O)C3=O)c1)C(=O)N[C@@H](CC1CCCCC1)C(=O)N[C@H](C=O)C[C@@H]1CCNC1=O (some centres unmarked) [MPD2] the “greater potency against NSP5 E166A mutant virus compared to wild-type Δ3678 mGFP” value [1] was 5 fold, the “M^Pro degradation during SARS-CoV-2 infection” value (M^Pro) was “most potent degrader” and the “antiviral synergy with nirmatrelvir” value [2] was “synergistic effects”. For the same compound, the “M^Pro degradation in CRBN knockout vs wildtype CRBN cells” value [3] was “significant rescue of intracellular M^Pro” and the “M^Pro degradation, time course” value [3] was “significant degradation; also recorded: nearly maximal degradation”.

For CC(C)(C)[C@H](NC(=O)C(F)(F)F)C(=O)N1C[C@H]2[C@@H]([C@H]1C(=O)N[C@H](C#N)C[C@@H]1CCNC1=O)C2(C)C [nirmatrelvir], the “resistance conferred by NSP5 E166A mutation” value [4] is listed as 10 fold.

For C[C@@H](OC(C)(C)C)[C@H](NC(=O)OCc1ccccc1)C(=O)N[C@@H](CC1CCCCC1)C(=O)N[C@H](C=O)C[C@@H]1CCNC1=O [MPI8, reference compound], the “Effect of pretreatment on MPD2-induced M^Pro degradation (competition)” value [3] was “completely blocked”.

In the case of CC(C)C[C@@H](C=O)NC(=O)[C@H](CC(C)C)NC(=O)[C@H](CC(C)C)NC(=O)OCc1ccccc1 [MG132, reference compound] (Cbz-Leu-Leu-Leu-aldehyde), the “Effect of proteasome inhibitor pretreatment on MPD2-induced M^Pro degradation” value [3] is reported as “effectively rescued”.
